Experimental data from patent publication US20100317052A1, “PROCESS FOR DETECTING HELICOBACTER PYLORI USING ALIPHATIC AMIDES” (priority 2006, published 2010).

Experiments:
[1] = tested on: H. pylori; assay: Formation of carboxylic acid from aliphatic amide in H. pylori enriched liquid culture, SPME of vapor phase and GC-MS (SIM); format: cell-based, Helicobacter pylori; settings: for formation of the respective acid in the vapor phase: amide added to medium containing H. pylori (collection cultures and clinical isolates), GC-MS
Method: In vitro ex vivo experimental tests were carried out in H. pylori cultures from collections and clinical isolates. […] The experimental tests were performed in vitro ex vivo in H. pylori cultures from collection and clinical isolates enriched in liquid medium (F12) under microaerophilic conditions. These compounds were administrated as diluted aqueous solutions (0.5 mL) to the liquid culture media (25 mL), 120 mL glass flasks hermetically sealed and encapsulated with a cap containing a septum. The collection of the acids that were formed after the amide administration described in 1 was carried out after acidification of the medium with acid tartaric (mimetizing the stomach's pH) and exposing to the flask's vapor phase for 5 minutes at 37° C. a solid-phase microextraction fiber (SPME) coated with carbowax/divinilbenzene (65 μm thickness). The search in vapor phase for the carboxylic acids generated by the bacterium's aliphatic amidases activity on the amides administrated was carried out by means of gas chromatography using a capillary column of intermediate polarity. The detection was performed by mass spectrometry comprising 3 scan cycles with selective ion monitoring (SIM) the m/z=74 for the propionic acid and m/z=88 for butyric acid.

[2] = Amide incubated in flask comprising only the medium, without any bacteria addition, SPME GC-MS; format: physicochemical; settings: 0.5 mL of 20 mM solution, 60 minutes incubation at 37° C.
Method: These compounds were administrated as diluted aqueous solutions (0.5 mL) to the liquid culture media (25 mL), 120 mL glass flasks hermetically sealed and encapsulated with a cap containing a septum.
The collection of the acids that were formed after the amide administration described in 1 was carried out after acidification of the medium with acid tartaric (mimetizing the stomach's pH) and exposing to the flask's vapor phase for 5 minutes at 37° C. a solid-phase microextraction fiber (SPME) coated with carbowax/divinilbenzene (65 μm thickness).
The search in vapor phase for the carboxylic acids generated by the bacterium's aliphatic amidases activity on the amides administrated was carried out by means of gas chromatography using a capillary column of intermediate polarity.
The detection was performed by mass spectrometry comprising 3 scan cycles with selective ion monitoring (SIM) the m/z=74 for the propionic acid and m/z=88 for butyric acid.

chromatographic peak corresponding to butyric acid [2] | chromatographic peak corresponding to propanoic acid [2] | SMILES | chromatographic area corresponding to the butyric acid ([1]; 0.5 mL of 20 mM solution, medium enriched with H. pylori, 60 minutes incubation at 37° C., vapor phase SPME GC-MS m/z=88) | formation of the respective acid in the vapor phase [1] | chromatographic area corresponding to the propanoic acid ([1]; 0.5 mL of 20 mM solution, medium enriched with H. pylori, 60 minutes incubation at 37° C., vapor phase SPME GC-MS m/z=74)
did not derive any chromatographic peak |  | CCCC(N)=O [butyramide] | 6.5×10^5 | the formation of the respective acids takes place | 
 | did not produce any chromatographic peak | CCC(N)=O [propionamide] |  | the formation of the respective acids takes place | 7.0×10^5
